Values of other authors in patent US4344438A, “Optical sensor of plasma constituents” (The United States of America as represented by the …, priority 1980, dated 1982).

Target: Concanavalin-A (Con-A)
Details: from So and Goldstein, Biochem., Biophys. Acta 165, 398 (1968); read-out: Binding constant K of sugar to Concanavalin-A

Structure (SMILES)	Kd [µM]
OC[C@H]1O[C@H](O[C@H]2[C@H](O)[C@@H](O)C(O)O[C@@H]2CO)[C@H](O)[C@@H](O)[C@@H]1O (mixture of isomers) [Maltose]	350
O=C(CO)[C@@H](O)[C@H](O)[C@H](O)CO [Fructose]	730
OC[C@H]1O[C@H](OC[C@H]2OC(O)[C@H](O)[C@@H](O)[C@@H]2O)[C@H](O)[C@@H](O)[C@@H]1O (some centres unmarked) [Isomaltose]	180
OC[C@H]1O[C@@](CO)(O[C@H]2O[C@H](CO)[C@@H](O)[C@H](O)[C@H]2O)[C@@H](O)[C@@H]1O [Sucrose]	1900
O=[N+]([O-])c1ccc(O[C@H]2O[C@H](CO)[C@@H](O)[C@H](O)[C@@H]2O)cc1 [p-nitrophenol-α-D mannopyranoside]	29.4
